{"source": "patent US7741344B2", "about": "“Process for preparing purified S-BEL and R-BEL and compositions thereof” (Washington University in St. Louis, priority 2002, dated 2010)", "key": {"[1]": {"system": "magnesium-dependent cytozoic phosphatidate phosphohydrolase, PAP-1", "details": "25 μM BEL; (33, 34); cited from earlier work"}, "P388D1 macrophages": {"system": "P388D1 macrophages", "details": "up to 5 μM BEL; (15); cited from earlier work"}, "[2]": {"system": "phosphatidate phosphohydrolase in A-10 cells", "test": "Total phosphatidate phosphohydrolase activity in homogenates of intact A-10 cells pretreated with BEL", "type": "cell-based, rat", "details": "intact A-10 cells exposed to up to 100 μM; FIG. 6B", "method": "(§1) Measurement of Cytosolic and Membrane-bound Phosphatidate Phosphohydrolase Activities—A-10 cells were grown to confluency, washed twice in ice-cold phosphate-buffered saline, and harvested in lysis buffer (50 mM Tris-HCl, pH 7.4 containing 0.25 M sucrose and 0.2 mM DTT). After brief sonication utilizing a Vibra-Cell VC4O sonicator (5×1 s pulses at 30% power), the lysed cell suspension was centrifuged at 100,000×g for 1 hr to separate cytosolic and membrane fractions. In some tests, A-10 cells were washed and pretreated with BEL or ethanol vehicle (as described above for tests examining [^3H]-AA liberation) before isolation of cell homogenates. […] Reactions were terminated with 900 μL of 5% acetic acid and extracted into chloroform by the method of Bligh and Dyer (38) prior to separating dipaliitoyl glycerol by TLC utilizing chloroform: methanol: water (65:35:2) as the mobile phase prior to quantification by scintillation spectrometry.\n(§2) A-10 cells plated on 100 mm dishes were washed 2× in ice-cold PBS and harvested in lysis buffer (50 mM Tris-HCl, pH 7.4 containing 0.25 M sucrose and 0.2 mM DTT). […] In panel B, intact A-10 cells were washed and pretreated with BEL or ethanol vehicle (as described in FIG. 5) before isolation of the cell homogenate and quantification of phosphatidate phosphohydrolase activity as described above. […]"}, "A-10 smooth muscle cells": {"system": "A-10 smooth muscle cells", "details": "prior studies (10, 29), cited from earlier work"}, "A-10 cells": {"system": "A-10 cells", "details": "cited from earlier work"}, "[3]": {"system": "iPLA2 vs. cPLA2 and SPLA2 family members", "details": "(31, 32); cited from earlier work"}, "[4]": {"system": "purified recombinant iPLA2β", "test": "Assay of iPLA2β inhibition by BEL (radiolabeled phospholipid substrate)", "type": "biochemical", "details": "FIG. 4A", "quoted_text": "Recombinant iPLA2 Enzymes—Recombinant iPLA2β was expressed and purified from Sf9 cells as previously described (35).\nAssay of iPLA2β and iPLA2γ Inhibition by BEL—Purified recombinant iPLA2β or Sf9 cell membranes containing recombinant iPLA2γ were incubated with (R) BEL, (S) BEL, racemic BEL, or ethanol vehicle for 3 mm at 22° C. in the presence of 100 mM Tris-HCl (pH 7.0) and 4 mM EGTA (for iPLA2β) or 100 mM Tris-acetate (pH 8.0) and 4 mM EGTA (for iPLA2γ). The concentration of BEL used for each test ranged from 0 to 16 μM. L-α-1-palmitoyl-2-[1^14C]-arachidonyl-phosphatidylcholine (5 μM final concentration) or L-α-1-palmitoyl-2-[1-^14C]-oleoyl-phosphatidylcholine (5 μM final concentration) in ethanol was then added to each sample and incubated at 37° C. for 2 min. Reactions were terminated by extraction of radiolabeled products into butanol, and reactants and products were separated by thin layer chromatography using Whatman LK6D 60 Å Silica Gel plates with petroleum ether/ethyl ether/acetic acid (70:30:1) as the mobile phase. Regions corresponding to the migration of a fatty acid standard visualized by iodine staining were scraped into vials and radioactivity was quantified by scintillation spectrometry.\nPanel A—Purified recombinant iPLA2β (1 μg/ml) in 100 mM Tris-HCl, pH 7.3 containing 1 mM EGTA was preincubated at 22° C. for 3 mm in the presence of the indicated concentrations of (R)-, (S)-, or rac-BEL or ethanol vehicle alone (1% final concentration). Radiolabeled substrate (L-α-1-palmitoyl-2-[1-^14C]-arachidonyl-phosphatidylcholine, 5 μM final concentration) was then added to each reaction and incubated at 37° C. for 2 min. Reactions were terminated by extraction of remaining substrate and products into butanol, separation by TLC, and quantification of released radiolabeled fatty acid by scintillation spectrometry as described in Experimental Procedures."}, "[5]": {"system": "membrane-bound phosphatidate phosphohydrolase (PAP-2)", "test": "Membrane-bound phosphatidate phosphohydrolase activity of A-10 cell membrane fraction", "type": "biochemical, rat", "details": "concentrations up to 200 μM BEL; FIG. 6A", "method": "as §1, §2"}}, "note": "Like-named read-outs stand apart in the source and are kept apart here."}
{"smiles": "O=C1OC(=CBr)CCC1c1cccc2ccccc12", "note": "(racemic) [rac-BEL, Racemic (E)-6-(bromomethylene)-3-(1-naphthalenyl)-2H-tetrahydropyran-2-one]", "values": [{"measurement": "inhibition of PAP-1", "setting": "[1]", "value": "partially inhibit"}, {"measurement": "levels of diacylglycerol or phosphatidic acid formed upon stimulation with zymosan", "setting": "P388D1 macrophages", "value": "does not significantly effect"}, {"measurement": "total phosphatidate phosphohydrolase activity in comparison to ethanol-treated controls", "setting": "[2]", "value": "did not inhibit"}, {"measurement": "inhibition of AVP-inducible arachidonic acid release", "setting": "A-10 smooth muscle cells; 2 μM BEL pretreatment", "value": "≈ 60%"}, {"measurement": "inhibition of AVP-inducible arachidonic acid release", "setting": "A-10 smooth muscle cells; 5 μM BEL pretreatment", "value": "~80", "unit": "%"}, {"measurement": "release of IP2 or IP3 in A-10 cells", "setting": "A-10 cells", "value": "does not inhibit"}, {"measurement": "selectivity iPLA2 vs. cPLA2 and SPLA2 family members", "setting": "[3]", "value": 1000, "unit": "fold"}, {"measurement": "inhibitory potency on iPLA2β relative to the enantiomers", "setting": "[4]", "value": "intermediate of that of (R)-BEL and (S)-BEL"}, {"measurement": "effect on membrane-bound (PAP-2) phosphatidate phosphohydrolase", "setting": "[5]", "value": "lack of any effect"}]}
